In data set [1] the test system is polyamine transporter (PATr). In words: Polyamine transport (PAT) inhibition assay, 3H-spermidine uptake into MDA-MB-231 cells. Type of data set: cell-based, human. The settings on record: for Ki: MDA-MB-231 cells. On the procedure:
(§1) The radiometric assay uses radiolabeled polyamines such as putrescine, spermidine or spermine, but, due to the low signal, large numbers of adherent or non-adherent cells are required. Additional care is required with spermine due to its nonspecific adsorption to cells and plastics. Cells are mixed with the test compounds and the radiolabeled polyamine to initiate the assay. The cells are incubated for 1–60 minutes, depending on cell type. The assay is terminated by removal of the medium and cooling the plates to 4° C. The cells are then washed with cold medium three times, dissolved in 0.1% sodium dodecyl sulfate and the radioactivity in solution is then determined by scintillation counting. This assay is difficult to scale up to a high throughput procedure due to the low signal from the radiolabel and the handling requirements inherent in procedures with radioactivity.
Therefore, the growth assay and a kinetic transport assay have been used to validate transport inhibition.
The polyamine analogues and derivatives of the invention may be evaluated for their ability to inhibit the uptake of spermidine into MDA cells in culture. Joro spider toxin JSTx-3 is available from Calbiochem; 1-Naphthylacetylspermine is available from RBI. Deoxyspergualin was a generous gift from Paul Gladstone.
300 nM 1202 was the maximum concentration tested in initial rate transport assays.

Another data set has as its system MDA-MB-231 cells. Description: Growth assay of MDA-MB-231 cells with ODC inhibitor (DFMO) and 1 μM spermidine. The settings on record: for IC50: read-out: IC50 for growth in combination with ODC inhibitor (DFMO), 230 μM DFMO; for IC50 / IC50 with DFMO, result in words: 1 μM spermidine; for concentration added to culture media at which growth inhibition due to 1202 and DFMO begins to reverse: cells treated with 1202 and DFMO; for R, ratio of IC50 in the absence of DFMO over IC50 in the presence of DFMO: MDA growth assay.

The test system of data set [2] is MDA breast carcinoma cells. In words: Rescue from DFMO-induced growth inhibition of MDA cells without added polyamines, six day growth assay. The data set is classed as cell-based, human. The settings on record: absence of polyamines. On the procedure:
An additional series of spermine amides were evaluated to extend the structure-activity relationship around this polyamine transport target.
Growth assays were done over a six day period in order to allow for polyamine depletion within cells. When synthesis of polyamines is inhibited, cells compensate by increasing transport of extracellular polyamines into the cell. Over the time course of the assay, polyamines in the culture media may be depleted resulting in growth inhibition.

Data set [3] relates to polyamine transporter (PATr). In words: Radiometric PAT assay in A172 glioblastoma cells. Type of data set: cell-based. The settings on record: A172 cell line. The protocol: as §1
Data set [4] has as its system T-cell acute lymphoblastic leukemias (ALL), glioblastomas, prostate, and colon cell lines. In words: In vitro test in combination with ODC inhibitors against several human cancer cell lines. The data set is classed as cell-based. The protocol:
DACS was tested in vitro in combination with ODC inhibitors against several human cancer cell lines. These include T-cell acute lymphoblastic leukemias (ALL), glioblastomas, prostate, and colon cell lines.

For data set [5], the target named is spermidine/spermine acetyltransferase (SSAT) (Homo sapiens, UniProt P21673). Description: Spermidine/spermine acetyltransferase enzymatic activity, 14C-acetyl CoA incorporation. The data set is classed as biochemical. The settings on record: 1 mM spermidine, 1 mM 14C-acetyl CoA, pH 7.8. The protocol:
A study was conducted to determine whether the compositions of the present invention, designed as PAT inhibitors, had other activities on the PA system. Specifically, the ability of DACS to inhibit an enzyme involved in PA recycling was evaluated. The method used was as described in Casero, R. A. et al., Biochem. J. 270:615–620 (1990) hereby incorporated by reference in its entirety. This assay measures the incorporation of ^14C-labeled acetyl CoA into spermidine to form acetylspermidine. Varying concentrations of DACS were added to a reaction mixture containing HEPES buffer, pH 7.8, 1 mM spermidine, and 1 mM ^14C-Acetyl CoA. The product is isolated by binding to phosphocellulose filter paper and the extent of reaction is determined by scintillation counting.

For a further data set, the system named is cancer cells. The settings on record: cited from earlier work.

A value given as a limit tells only on which side of the number the result lay.

spermidine/spermine acetyltransferase (SSAT), sequence (P21673 whole entry, species assumed): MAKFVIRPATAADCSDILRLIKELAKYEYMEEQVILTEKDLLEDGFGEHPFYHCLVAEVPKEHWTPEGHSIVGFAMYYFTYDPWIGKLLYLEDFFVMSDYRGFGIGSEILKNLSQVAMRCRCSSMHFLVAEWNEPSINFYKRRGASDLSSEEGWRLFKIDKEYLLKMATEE

In data set [1], `NCCCNCCCCNCCCNC(=O)C(N)CCCN` [Compound 1224, N^1-Spermine-L-ornithyl amide] showed a Ki of 47 nM. For the same compound, the IC50 in the data set on MDA-MB-231 cells came to 3 µM. For the same compound, the “rescue of cells from growth inhibitory effects of DFMO” value in data set [2] is on record as “not able to rescue”.
With `CN(C)CCCN1c2ccccc2CCc2ccccc21` [Compound 165, imipramine, reference compound], the “inhibition of the PAT assay” value in data set [3] and in data set [1] (MDA cell line) was “inhibited” in each case. Further, in data set [1] (A172 and MDA cells), the “type of PAT inhibition” value is reported as “non-competitive”.
For the compound `NCCCNCCCCNCCCN` [SPM, spermine, reference compound], in the data set with MDA-MB-231 cells, the “concentration added to culture media at which growth inhibition due to 1202 and DFMO begins to reverse” value was 1 µM.
Turning to `NCCCNCCCCNCCCNC(=O)CCCCCNS(=O)(=O)c1ccc(CNC(=O)c2ccc(Cl)cc2)s1` [Compound 5, N^1-[(N^6-5-(4-chlorobenzamidomethyl)-thiophene-2-sulfonyl)-6-aminocaproyl]spermine], the “R, ratio of IC50 in the absence of DFMO over IC50 in the presence of DFMO” value in the data set with MDA-MB-231 cells came to 210.
In turn, `NCCCNCCCCNCCCNC(=O)CN` [Compound 1125, N^1-Spermine-glycinyl amide] came in with a Ki in data set [1] of 87 nM. Besides, the “IC50 with DFMO, result in words” value with MDA-MB-231 cells is on record as “failed to give effective IC50 values”. Further, in data set [2], the “rescue of cells from growth inhibitory effects of DFMO” value is recorded as “able to rescue”.
Turning to `NCCCNCCCCNCCC(=O)NCCCCCNC(=O)[C@H](CC(N)=O)NC(=O)Cc1ccc(O)cc1O` [Compound 1111, reference compound], in data set [1], the affinity, expressed as Ki, was 190 nM.
On the same count and under the same terms, to `CC(N)C(=O)NCCCNCCCCNCCCN` [Compound 1178, N^1-Spermine-L-alanyl amide] belongs 244 nM.
Take `CSCCC(N)C(=O)NCCCNCCCCNCCCN` [Compound 1164, N^1-Spermine-L-methionyl amide]: in data set [1], the Ki amounted to 34 nM. For the same compound, the “IC50 with DFMO, result in words” value with MDA-MB-231 cells was “failed to give effective IC50 values”.
Turning to `NCCCCNCCCN` [spermidine, reference compound], the Km in data set [1] (MDA cells, read-out: Km for the transport system) was found to be 520 nM. Further, in the data set on MDA-MB-231 cells, the “concentration added to culture media at which growth inhibition due to 1202 and DFMO begins to reverse” value stood at 1 µM.
In data set [1], `NCCCNCCCCNCCCNC(=O)C(N)CC(N)=O` [Compound 1131, N^1-Spermine-L-asparaginyl amide] registered a Ki of 32 nM.
For the compound `CN(C)c1cccc2c(S(=O)(=O)NCCCCCC(=O)NCCCNCCCCNCCCN)cccc12` [Compound 4, N^1-[(N^6-dansyl)-6-aminocaproyl]spermine], the “effect against tumor cell lines in vitro” value in data set [4] is reported as “effective”. The “affinity higher than the compound reported by Felschow et al.” value in data set [1] was determined as 100 times. For the same compound, in data set [1] (versus compound without linker), the “increase in binding to the PATr by six carbon linker” value stood at 10 fold. The “concentration at which compound alone becomes growth inhibitory” value with MDA-MB-231 cells (alone, without ODC inhibitor) amounted to 300 µM. Besides, the IC50 with MDA-MB-231 cells amounted to 0.6 µM. Further, the “reduction of cell growth” value in the data set with MDA-MB-231 cells (with ODC inhibitor in the presence of polyamines, day 3) is on record as 69%. For the same compound, the “inhibition of SSAT enzymatic activity” value in data set [5] was “inhibited”.
In the case of `NCCCNCCCCNCCCNC(=O)C(N)Cc1c[nH]c2ccccc12` [Compound 1095, N^1-Spermine-L-tryptophanyl amide], affinity in data set [1] was put at a Ki of 162 nM. Also, in the data set on MDA-MB-231 cells, the IC50 worked out at 15 µM.
As to `NCCCCCC(=O)NCCCNCCCCNCCCN` [Compound 1094, N^1-[6-aminocaproylspermine]], the Ki in data set [1] stood at 69 nM. For the same compound, the “rescue of cells from growth inhibitory effects of DFMO” value in data set [2] is “able to rescue”.
The compound `CCC(C)C(N)C(=O)NCCCNCCCCNCCCN` [Compound 1228, N^1-Spermine-L-isoleucinyl amide] gave a Ki in data set [1] of 124 nM. In the data set with MDA-MB-231 cells, the IC50 was 9 µM.
Compound `CC(C)C(N)C(=O)NCCCNCCCCNCCCN` [Compound 1157, N^1-Spermine-L-valinyl amide] gave a Ki in data set [1] of 84 nM. For the same compound, the IC50 with MDA-MB-231 cells is 16 µM. Moreover, in data set [2], the “rescue of cells from growth inhibitory effects of DFMO” value is recorded as “not able to rescue”.
For `NCCCNCCCCNCCCNC(=O)[C@@H]1CCCN1` [Compound 1159, N^1-Spermine-L-prolinyl amide] the same measures were 38 nM, 5 µM and “able to rescue”.
As for `NCCCNCCCCNCCCNC(=O)CCN` [Compound 1177, N^1-Spermine-β-alanyl amide], the Ki in data set [1] turned out to be 71 nM. Further, the “IC50 with DFMO, result in words” value in the data set on MDA-MB-231 cells is reported as “failed to give effective IC50 values”.
As for `CC(C)(C)C(N)C(=O)NCCCNCCCCNCCCN` [Compound 1194, N^1-Spermine-L-^tbutylglycinyl amide], the Ki in data set [1] is 212 nM. Further, in the data set with MDA-MB-231 cells, the IC50 was 11 µM.
On to `N=C(N)NCCCCCCC(=O)NC(O)C(=O)NCCCCNCCCN` (stereo not shown) [Compound 1085, deoxyspergualin, reference compound], for which, in data set [1], the affinity corresponds to a Ki of 81 nM.
On the same count and under the same terms, to `CC(C)(C)OC(=O)NCCCNCCCCNCCCN` [Compound 1163, N^1-boc-spermine] belongs 83 nM.
In turn, `CC(C)CC(N)C(=O)NCCCNCCCCNCCCN` [Compound 1230, N^1-Spermine-L-leucinyl amide] registered a Ki in data set [1] of 32 nM. Further, in the data set with MDA-MB-231 cells, the “IC50 with DFMO, result in words” value is reported as “failed to give effective IC50 values”.
The compound `CC(C)C(N)C(=O)NCCCNCCCCNCCCN` [Compound 1196, N^1-Spermine-D-valinyl amide] returned a Ki in data set [1] of 48 nM. Besides, the IC50 in the data set on MDA-MB-231 cells is 9 µM.
In data set [1], `NCCCNCCCCNCCCNC(=O)Cc1cccc2ccccc12` [Compound 1022, 1-Naphthylacetylspermine, reference compound] yielded a Ki of 230 nM. For the same compound, the IC50 with MDA-MB-231 cells turned out to be 8.3 µM.
In the same order, the values of `CC(C)(N)C(=O)NCCCNCCCCNCCCN` [Compound 1220, N^1-Spermine-α-aminoisobutyryl amide] are 160 nM and 8 µM.
In data set [1], `CC(O)C(N)C(=O)NCCCNCCCCNCCCN` [Compound 1207, N^1-Spermine-L-threoninyl amide] had a Ki of 130 nM. For the same compound, in the data set with MDA-MB-231 cells, the IC50 was found to be 6 µM.
For `NCCCNCCCCNCCCNC(=O)C(N)CO` [Compound 1187, N^1-Spermine-L-serinyl amide] the same measures were 45 nM and 26 µM.
In turn, `NCCCNCCCCNCCCNC(=O)C(N)CCC(N)=O` [Compound 1154, N^1-Spermine-L-glutaminyl amide] displayed a Ki in data set [1] of 47 nM. Moreover, in the data set with MDA-MB-231 cells, the “IC50 with DFMO, result in words” value is on record as “failed to give effective IC50 values”.
With `NCCCNCCCCNCCCNC(=O)C12CC3CC(CC(C3)C1)C2` [Compound 1235, N^1-spermine 1-adamantylamide], in data set [1], the Ki came to 1140 nM.
As to `CC(=O)NCCCNCCCCNCCCN` [Compound 1110, N^1-acetylspermine, reference compound], the “greater affinity for the transport system than spermidine” value in data set [1] (Ki versus Km of spermidine) is 3 fold. This compound also registered a Ki in data set [1] of 162 nM.
In data set [1], `NCCCNCCCCNCCCNC(=O)C(N)Cc1c[nH]c2ccccc12` [Compound 1309, N^1-Spermine-D-tryptophanyl amide] returned a Ki of 26 nM.
For `NCCCNCCCCNCCCNC(=O)CC12CC3CC(CC(C3)C1)C2` [Compound 1212, N^1-Spermine 2-(1-adamantyl)acetamide], in the data set on MDA-MB-231 cells, the IC50 was 9 µM.
Take `NCCCNCCCCNCCCNC(=O)C(N)Cc1ccc(O)cc1` [Compound 1173, N^1-Spermine-L-tyrosinyl amide]: in data set [1], the Ki came to 77 nM.
`NCCCNCCCCNCCCNC(=O)CCCCCNS(=O)(=O)c1ccc2oc3ccccc3c2c1` [Compound 6]: in the data set with MDA-MB-231 cells, the “R, ratio of IC50 in the absence of DFMO over IC50 in the presence of DFMO” value amounted to 220.
`NCCCCN` [PUT, putrescine, reference compound]: the “concentration added to culture media at which growth inhibition due to 1202 and DFMO begins to reverse” value in the data set with MDA-MB-231 cells is listed as “greater than 10 μM”.
With `NCCCNCCCCNCCCNC(=O)C(N)CC1CCCCC1` [Compound 1227, N^1-Spermine-L-cyclohexanealanyl amide], affinity in data set [1] was put at a Ki of 241 nM.
Regarding `NCCCCN(CCCN)CCCNC(=O)CCCc1ccc(N(CCCl)CCCl)cc1` [chlorambucil-spermidine conjugate], the “increase in cytotoxicity compared to chlorambucil alone” value in the data set on cancer cells was no more than 225 fold.

By Ki is commonly meant a dissociation constant, usually derived from enzyme kinetics or from competition with a known ligand. Read a low Ki as a stronger hold on the target. The IC50 is the point on the concentration scale where inhibition reaches its midpoint. As usually defined, the Km is the substrate concentration at which the rate is half of its maximum.

The values are drawn from patent US7208528B1, “Polyamine analogues as therapeutic and diagnostic agents” (MediQuest Therapeutics, Inc., priority 1997, dated 2007).
